Measurements: article PMC5681660, “Reduced hepatitis B and D viral entry using clinically applied drugs as novel inhibitors of the bile acid transporter NTCP” (Scientific Reports, 2017)
Counter-ions that a name gives are not always drawn.

Biological target: T1, human NTCP (Homo sapiens, UniProt Q14973)
T1 sequence (Q14973 1-349): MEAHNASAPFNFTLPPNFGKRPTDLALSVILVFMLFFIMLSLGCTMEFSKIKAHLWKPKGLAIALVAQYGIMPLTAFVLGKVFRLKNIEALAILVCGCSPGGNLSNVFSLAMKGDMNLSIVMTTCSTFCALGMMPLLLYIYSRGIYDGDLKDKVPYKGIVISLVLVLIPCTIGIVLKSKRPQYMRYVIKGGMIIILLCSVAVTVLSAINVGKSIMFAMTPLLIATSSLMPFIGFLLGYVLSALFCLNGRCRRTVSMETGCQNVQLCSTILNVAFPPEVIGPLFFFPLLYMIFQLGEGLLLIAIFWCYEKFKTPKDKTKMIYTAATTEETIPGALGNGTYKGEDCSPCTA
Assay: Screening taurocholate uptake assay (96-well, [14C]taurocholate, 10 µM drug)
Conditions: for B-score functional assay: screening taurocholate uptake, 10 µM drug

[1] = combined ranking of functional and binding screening assays
[2] = ranking over the functional and the binding screening assay

CC(C)NCC(O)c1cc(O)cc(O)c1.CC(C)NCC(O)c1cc(O)cc(O)c1.O=S(=O)(O)O (stereo not shown)
Ranking score [1]: 489.878
B-score functional assay: 0.057

Cl.Cl.c1ccc2c(c1)CCCc1cc(NCCN3CCOCC3)nnc1-2
Ranking score [2]: 77.0714
B-score functional assay: -1.983

CC=CC(=O)N(CC)c1ccccc1C (mixture of isomers) [Crotamiton]
Ranking score [2]: 248.379
B-score functional assay: -0.004

C#C[C@]1(OC(C)=O)CC[C@H]2[C@@H]3CCC4=CC(=NO)CC[C@@H]4[C@H]3CC[C@@]21CC (mixture of isomers) [Norgestimate]
Ranking score [2]: 95.4987
B-score functional assay: -2.463

CNCC(O)c1ccc(O)cc1 (racemic) [(+,-)-Synephrine]
Ranking score [1]: 485.351
B-score functional assay: -0.397

CN(Cc1cnc2nc(N)nc(N)c2n1)c1ccc(C(=O)N[C@@H](CCC(=O)O)C(=O)O)cc1 (racemic) [Amethopterin (R,S)]
Ranking score [1]: 579.365
B-score functional assay: -0.795

Nc1c2c(nc3ccccc13)CCCC2O.O=C(O)/C=C\C(=O)O (racemic) [Hydroxytacrine maleate (R,S)]
Ranking score [2]: 180.3
B-score functional assay: 2.059

CC(=O)NC1CCSC1=O (racemic) [N-Acetyl-DL-homocysteine Thiolactone]
Ranking score [1]: 563.625
B-score functional assay: 0.096

O=C1c2cccc(O)c2C(=O)c2c(O)cccc21 [1,8-Dihydroxyanthraquinone]
Ranking score [1]: 1173.42
B-score functional assay (B-score): 1.277

Nc1ccccc1S(N)(=O)=O [2-Aminobenzenesulfonamide]
Ranking score [1]: 626.378
B-score functional assay: -0.592

CC(C)(C)NC[C@@H](O)COc1cccc2c1CCCC2=O.Cl [(+) -Levobunolol hydrochloride]
Ranking score [1]: 464.377
B-score functional assay: -1.002

CC(C)NC[C@H](O)COc1cccc2ccccc12 [(S)-propranolol hydrochloride]
Ranking score [1]: 599.166
B-score functional assay: -0.168

Nc1nc(NC2CC2)c2ncn([C@H]3C=C[C@@H](CO)C3)c2n1 [Abacavir Sulfate]
Ranking score [1]: 1184.97
B-score functional assay (B-score): 2.371

CC(=O)NCCCS(=O)(=O)O [Acamprosate calcium]
Ranking score [2]: 126.206
B-score functional assay: -0.535

CC(=O)OC1CN2CCC1CC2 (stereo not shown) [Aceclidine Hydrochloride]
Ranking score [2]: 189.214
B-score functional assay: -1.773

CC(=O)N[C@@H](CS)C(=O)O [Acetylcysteine]
Ranking score [1]: 542.19
B-score functional assay: -1.045

CC(=O)Oc1ccccc1C(=O)O [Acetylsalicylic acid]
Ranking score [1]: 1161.38
B-score functional assay (B-score): 2.017

COc1ccc(-c2ccc3cc(C(=O)O)ccc3c2)cc1C12CC3CC(CC(C3)C1)C2 [Adapalene]
Ranking score [1]: 620.435
B-score functional assay: 0.202

CCC(=O)OCC(=O)[C@@]1(OC(=O)CC)[C@H](C)C[C@H]2[C@H]3[C@H]([C@@H](O)C[C@@]21C)[C@@]1(C)C=CC(=O)C=C1C[C@H]3Cl [Alclometasone dipropionate]
Ranking score [2]: 175.417
B-score functional assay: -2.188

CCCCC(CC)CNC(=N)NC(=N)NCCCCCCNC(=N)NC(=N)NCC(CC)CCCC (stereo not shown) [Alexidine dihydrochloride]
Ranking score [2]: 6.481
B-score functional assay: -9.197

C=C1/C(=C\C=C2/CCC[C@]3(C)[C@@H]([C@H](C)CCCC(C)C)CC[C@@H]23)C[C@@H](O)C[C@@H]1O [Alfacalcidol]
Ranking score [1]: 594.47
B-score functional assay: -0.117

COc1cc2nc(N(C)CCCNC(=O)C3CCCO3)nc(N)c2cc1OC (stereo not shown) [Alfuzosin hydrochloride]
Ranking score [2]: 237.095
B-score functional assay: -2.737

CC(=O)[C@@]12O[C@](C)(c3ccccc3)O[C@@H]1C[C@H]1[C@@H]3CCC4=CC(=O)CC[C@]4(C)[C@H]3CC[C@@]12C [Algestone acetophenide]
Ranking score [2]: 142.566
B-score functional assay: -2.799

C=CCN1CCCC1CNC(=O)c1cc2[nH]nnc2cc1OC.Cl (stereo not shown) [Alizapride HCl]
Ranking score [1]: 642.464
B-score functional assay: 2.201

NC(=O)NC1NC(=O)NC1=O (stereo not shown) [Allantoin]
Ranking score [2]: 134.967
B-score functional assay: -2.549

Cc1[nH]cnc1CN1CCc2c(c3ccccc3n2C)C1=O [Alosetron hydrochloride]
Ranking score [1]: 562.783
B-score functional assay: -0.019

C=CCc1ccccc1OCC(O)CNC(C)C (stereo not shown) [Alprenolol hydrochloride]
Ranking score [1]: 1166.46
B-score functional assay (B-score): 2.549

C=CC[C@]1(O)CC[C@H]2[C@@H]3CCC4=CC(=O)CCC4=C3C=C[C@@]21C [Altrenogest]
Ranking score [1]: 607.028
B-score functional assay: 0.332

CN(C)c1nc(N(C)C)nc(N(C)C)n1 [Altretamine]
Ranking score [1]: 605.153
B-score functional assay: -0.464

COC(c1ccccc1)(c1ccccc1)[C@H](Oc1nc(C)cc(C)n1)C(=O)O [Ambrisentan]
Ranking score [1]: 629.311
B-score functional assay: -0.389

CC(=O)OCC(=O)[C@@]12OC3(CCCC3)O[C@@H]1C[C@H]1[C@@H]3CCC4=CC(=O)C=C[C@]4(C)[C@@]3(F)[C@@H](O)C[C@@]12C [Amcinonide]
Ranking score [1]: 530.494
B-score functional assay: 0.343

Nc1c2ccccc2nc2ccccc12 [Aminacrine]
Ranking score [1]: 608.609
B-score functional assay: -0.079

Cn1c(=O)c2[nH]cnc2n(C)c1=O [Aminophylline]
Ranking score [1]: 601.379
B-score functional assay: -0.16

CCC(C)(C)c1ccc(CC(C)CN2C[C@@H](C)O[C@@H](C)C2)cc1 (stereo partly shown) [Amorolfine hydrochloride]
Ranking score [1]: 533.183
B-score functional assay: -0.84

Clc1ccc2c(c1)C(N1CCNCC1)=Nc1ccccc1O2 [Amoxapine]
Ranking score [1]: 604.055
B-score functional assay: 0.589

CC1(C)S[C@@H]2[C@H](NC(=O)[C@H](N)c3ccc(O)cc3)C(=O)N2[C@H]1C(=O)O [Amoxicillin]
Ranking score [2]: 277.274
B-score functional assay: -0.114

C[C@@H]1[C@H](O)[C@@H](C)/C=C/C=C/C=C/C=C/C=C/C=C/C=C/[C@H](O[C@@H]2O[C@H](C)[C@@H](O)[C@H](N)[C@@H]2O)C[C@@H]2O[C@](O)(C[C@@H](O)C[C@@H](O)[C@H](O)CC[C@@H](O)C[C@@H](O)CC(=O)O[C@H]1C)C[C@H](O)[C@H]2C(=O)O [Amphotericin B]
Ranking score [2]: 61.0819
B-score functional assay: -7.097

CC1(C)S[C@@H]2[C@H](NC(=O)[C@H](N)c3ccccc3)C(=O)N2[C@H]1C(=O)O [Ampicillin trihydrate]
Ranking score [2]: 199.178
B-score functional assay: -0.594

CCOC(=O)OC(C)OC1=C(C(=O)Nc2ccccn2)N(C)S(=O)(=O)c2ccccc21 (stereo not shown) [Ampiroxicam]
Ranking score [1]: 519.584
B-score functional assay: 0.098

CCCc1ncc(C[n+]2ccccc2C)c(N)n1 [Amprolium hydrochloride]
Ranking score [2]: 254.142
B-score functional assay: -0.209

CC(C)(C#N)c1cc(Cn2cncn2)cc(C(C)(C)C#N)c1 [Anastrozole]
Ranking score [1]: 558.153
B-score functional assay: 0.728

O=C1c2c(O)cccc2Cc2cccc(O)c21 [Anthralin]
Ranking score [2]: 68.2788
B-score functional assay: 0.019

CCCCCC[C@H]1C(=O)O[C@H](C)[C@H](NC(=O)c2cccc(NC=O)c2O)C(=O)O[C@@H](C)[C@@H]1OC(=O)CC(C)C [Antimycin A]
Ranking score [2]: 15.6525
B-score functional assay: -8.175

Cc1c(O)c(=O)n(-c2ccccc2)n1C [Antipyrine, 4-hydroxy]
Ranking score [2]: 262.114
B-score functional assay: -1.78

Cc1cc(=O)n(-c2ccccc2)n1C [Antipyrine]
Ranking score [2]: 172.864
B-score functional assay: -1.958

C[C@@H](O[C@H]1OCCN(Cc2n[nH]c(=O)[nH]2)[C@H]1c1ccc(F)cc1)c1cc(C(F)(F)F)cc(C(F)(F)F)c1 [Aprepitant]
Ranking score [2]: 111.812
B-score functional assay: -3.7

O=C1CCc2ccc(OCCCCN3CCN(c4cccc(Cl)c4Cl)CC3)cc2N1 [Aripiprazole]
Ranking score [1]: 580.393
B-score functional assay: 1.007

CN1CC2c3ccccc3Oc3ccc(Cl)cc3C2C1 (stereo not shown) [Asenapine maleate]
Ranking score [2]: 127.491
B-score functional assay: -0.488

COc1ccc(CCN2CCC(Nc3nc4ccccc4n3Cc3ccc(F)cc3)CC2)cc1 [Astemizole]
Ranking score [2]: 231.853
B-score functional assay: -0.026

CC(C)c1c(C(=O)Nc2ccccc2)c(-c2ccccc2)c(-c2ccc(F)cc2)n1CC[C@@H](O)C[C@@H](O)CC(=O)O [Atorvastatin]
Ranking score [2]: 231.469
B-score functional assay: -2.669

CC[C@H](C)[C@H]1O[C@]2(C=C[C@@H]1C)C[C@@H]1C[C@@H](C/C=C(\C)[C@@H](O[C@H]3C[C@H](OC)[C@@H](O[C@H]4C[C@H](OC)[C@@H](O)[C@H](C)O4)[C@H](C)O3)[C@@H](C)/C=C/C=C3\CO[C@@H]4[C@H](O)C(C)=C[C@@H](C(=O)O1)[C@]34O)O2 [Avermectin B1a]
Ranking score [2]: 51.7494
B-score functional assay: -1.314

COc1ccc(C(=O)CC(=O)c2ccc(C(C)(C)C)cc2)cc1 [Avobenzone]
Ranking score [2]: 206.26
B-score functional assay: -0.955

OC(c1ccccc1)(c1ccccc1)C1CCNCC1 [Azacyclonol]
Ranking score [1]: 525.026
B-score functional assay: -0.041
